# Columns and labels:
# A2780 cells = assay: MTT antiproliferative assay, A2780; format: cell-based; conditions: Homo sapiens, A2780, read-out: A2780 IC50
# Description: The stock solutions of tested compounds were diluted with culture medium. Briefly, the cells were seeded into each well of 96-well plate, which were incubated at 37 °C, 5% CO2 until confluency 90–95%. Then, the cells were treated with compound sample at various concentrations for 48 h. Afterward, […] working solution (5 mg/ml) was added to each well and incubated for another 4 h. After incubation, the […] formed from MTT was extracted by adding DMSO (200 µl). The optical density (OD) at 490 nm and 630 nm were measured by Universal Microplate Spectrophotometer. […] The IC50 values were calculated with Origin 7.5 software (Originlab Corporation, Northampton, MA), and standard deviations of the IC50 values were obtained through at least 3 independent experiments.
# A series of tumour cell lines including the lung cancer A549, Calu-3, SPC-A-1, H322, H1299, breast cancer MDA-MB-231, MCF-7, MDA-MB-468, colon carcinoma LoVo, Colo205, ovarian cancer A2780, SKOV3, gastric cancer MKN45, pancreatic cancer PNAC-1, leukemic K562, and multiple myeloma OPM2 cells were cultured for the antiproliferative assay of active compound I13. In the present study, molecule I13 could inhibit the growth of both solid and haematologic tumour cell lines (Table 4). […]. The antiproliferative activity of molecule I13 was considered to be restricted by the poor enzyme inhibitory selectivity. Enhancement of selectivity could be a useful strategy to improve the anticancer activity of this group of HDACIs.
# HepG2 xenograft = conditions: 100 mg/kg/d intragastric, 16 days, HepG2 xenograft, n = 7
# HepG2 cells [1] = assay: Annexin V/PI cell apoptosis assay (flow cytometry); conditions: annexin V-FITC/PI
# Description: After 10 min of incubation, 1 µl PI was added to each sample and mixed gently. After incubation at room temperature for another 20 min in the dark, cells were subjected to flow cytometer (CytoFLEX, Beckman Coulter, Brea, CA).
# U937 cells = assay: MTT antiproliferative assay, U937; conditions: Homo sapiens, U-937, 48 h, read-out: U937 IC50
# Description: (§1) The stock solutions of tested compounds were diluted with culture medium. […] Then, the cells were treated with compound sample at various concentrations for 48 h. Afterward, 20 MTT working solution (5 mg/ml) was added to each well and incubated for another 4 h. After incubation, the medium formed from MTT was extracted by adding DMSO (200 µl). The optical density (OD) at 490 nm and 630 nm were measured by Universal Microplate Spectrophotometer. […] The IC50 values were calculated with Origin 7.5 software (Originlab Corporation, Northampton, MA), and standard deviations of the IC50 values were obtained through at least 3 independent experiments.
# U266 cells = assay: MTT antiproliferative assay, U266; conditions: Homo sapiens, U-266, 48 h, read-out: U266 IC50
# Description: as §1
# To evaluate the antiproliferative activity of hydroxamic acid containing molecules, MTT assays were performed using U937, U266, and HepG2 cell lines.
# HepG2 cells [2] = assay: MTT antiproliferative assay, HepG2; conditions: Homo sapiens, HepG2, 48 h, read-out: HepG2 IC50
# Description: as §1
# [3] = tested on: HDACs (HeLa nucleus extract containing a mixture of HDAC isoforms); assay: HDAC inhibitory assay with HeLa nucleus extract; conditions: at the concentration of 1 µM
SMILES,IC50 (U937 cells) [nM],IC50 (U266 cells) [nM],IC50 (HepG2 cells [2]) [nM],"HDACs, percentage inhibition rate (PIR) [3] [%]",other results
"O=C(CCCCCCC(=O)Nc1ccccc1)NO [SAHA, Suberoylanilide hydroxamic acid, reference compound]",,,,,"IC50 (A2780 cells): 27300 nM; mean weight of tumours (HepG2 xenograft): 0.322 g; flow cytometry quadrant Q1-LL (HepG2 cells [1]; HepG2, 0.2 μM): 88.86%; flow cytometry quadrant Q1-LR (HepG2 cells [1]; HepG2, 0.2 μM): 5.30%; flow cytometry quadrant Q1-UL (HepG2 cells [1]; HepG2, 0.2 μM): 0.05%; flow cytometry quadrant Q1-UR (HepG2 cells [1]; HepG2, 0.2 μM): 5.79%; flow cytometry quadrant Q1-LL (HepG2 cells [1]; HepG2, 0.8 μM): 86.03%; flow cytometry quadrant Q1-LR (HepG2 cells [1]; HepG2, 0.8 μM): 7.73%; flow cytometry quadrant Q1-UL (HepG2 cells [1]; HepG2, 0.8 μM): 0.01%; flow cytometry quadrant Q1-UR (HepG2 cells [1]; HepG2, 0.8 μM): 6.23%"
"CCn1cc(CCCC(=O)Nc2ccc(C(=O)NO)cc2)c2ccccc21 [Compound I3, 4-(4-(1-Ethyl-1H-indol-3-yl)butanamido)-N-hydroxybenzamide]",940 ± 40,240 ± 30,1920 ± 50,78.94 ± 2.34,
"O=C(CCCc1cn(Cc2ccccc2)c2ccccc12)Nc1ccc(C(=O)NO)cc1 [Compound I2, 4-(4-(1-benzyl-1H-indol-3-yl)butanamido)-N-hydroxybenzamide]",950 ± 40,480 ± 90,3630 ± 260,78.94 ± 3.41,
"O=C(CCCc1cn(Cc2cccc(Br)c2)c2ccccc12)Nc1ccc(C(=O)NO)cc1 [Compound I8, 4-(4-(1-(3-Bromo-benzyl)-1H-indol-3-yl)butanamido)-N-hydroxybenzamide]",1940 ± 170,710 ± 60,6450 ± 280,15.87 ± 3.27,
"O=C(CCCc1cn(Cc2cccc(F)c2)c2ccccc12)Nc1ccc(C(=O)NO)cc1 [Compound I7, 4-(4-(1-(3-Fluoro-benzyl)-1H-indol-3-yl)butanamido)-N-hydroxybenzamide]",950 ± 10,840 ± 60,4870 ± 120,46.17 ± 2.94,
"O=C(CCCc1c[nH]c2ccccc12)Nc1ccc(C(=O)NO)cc1 [Compound I1, 4-(4-(1H-indol-3-yl)butanamido)-N-hydroxybenzamide]",1020 ± 130,840 ± 90,8980 ± 160,53.81 ± 1.60,
"CCCCn1cc(CCCC(=O)Nc2ccc(C(=O)NO)cc2)c2ccccc21 [Compound I12, 4-(4-(1-Butyl-1H-indol-3-yl)butanamido)-N-hydroxybenzamide]",1010 ± 30,120 ± 20,5760 ± 650,62.70 ± 1.63,
"O=C(CCCc1cn(Cc2cccc(Cl)c2)c2ccccc12)Nc1ccc(C(=O)NO)cc1 [Compound I9, 4-(4-(1-(3-Chloro-benzyl)-1H-indol-3-yl)butanamido)-N-hydroxybenzamide]",1000 ± 150,650 ± 40,5670 ± 60,56.68 ± 2.42,
"O=C(CCCc1cn(Cc2c(F)cccc2F)c2ccccc12)Nc1ccc(C(=O)NO)cc1 [Compound I10, 4-(4-(1-(2,6-Difluoro-benzyl)-1H-indol-3-yl)butanamido)-N-hydroxybenzamide]",630 ± 70,160 ± 70,3390 ± 250,79.10 ± 4.65,

# Continued, in another order:
IC50 (U937 cells) [nM],IC50 (U266 cells) [nM],IC50 (HepG2 cells [2]) [nM],SMILES,"HDACs, percentage inhibition rate (PIR) [3] [%]",other results
1250 ± 210,820 ± 60,7720 ± 340,"O=C(CCCc1cn(Cc2ccc(F)c(F)c2)c2ccccc12)Nc1ccc(C(=O)NO)cc1 [Compound I6, 4-(4-(1-(3,4-Difluoro-benzyl)-1H-indol-3-yl)butanamido)-N-hydroxybenzamide]",16.14 ± 1.07,
4420 ± 180,880 ± 70,6170 ± 210,"O=C(CCCc1cn(Cc2ccccc2C(F)(F)F)c2ccccc12)Nc1ccc(C(=O)NO)cc1 [Compound I5, 4-(4-(1-(2-Trifluoromethyl-benzyl)-1H-indol-3-yl)butanamido)-N-hydroxybenzamide]",19.30 ± 1.60,
970 ± 40,960 ± 80,4450 ± 250,"O=C(CCCc1cn(Cc2ccc(C(F)(F)F)cc2)c2ccccc12)Nc1ccc(C(=O)NO)cc1 [Compound I4, 4-(4-(1-(4-Trifluoromethyl-benzyl)-1H-indol-3-yl)butanamido)-N-hydroxybenzamide]",68.50 ± 1.22,
4580 ± 230,740 ± 50,4760 ± 610,"O=C(CCCc1cn(Cc2cc(C(F)(F)F)cc(C(F)(F)F)c2)c2ccccc12)Nc1ccc(C(=O)NO)cc1 [Compound I11, 4-(4-(1-(3,5-Bis-trifluoromethyl-benzyl)-1H-indol-3-yl)butanamido)-N-hydroxybenzamide]",52.24 ± 1.10,

# — article PMC7822065, “Discovery of indole-3-butyric acid derivatives as potent histone deacetylase inhibitors” (Journal of Enzyme Inhibition and Medicinal Chemistry, 2021)
